Tests used:
B. subtilis 168 [1] = test: fitness (endpoint OD595 vs no drug) (fraction); higher = more growth
Method in brief: (§1)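 Bacterial growth was followed in 384-well plates seeded at OD595 0.01, with 30 µl per well, or 55 µl for S. pneumoniae, in TSB, LB Lennox or CY at 37 °C. OD595 was read every 30 min for 14 h, and each reading had the first reading subtracted as background. Fitness is the background-corrected optical density at entry into stationary phase divided by the robust mean of the no-drug control wells. This ratio is capped at 1.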

S. aureus DSM 20231 [2] = test: as above
Method in brief: as §1

S. aureus Newman [3] = test: as above
Method in brief: as §1

S. pneumoniae D39V [4] = test: as above
Method in brief: as §1

B. subtilis 168 [5] = test: Bliss interaction score (quartile over a dose matrix) (fitness difference); higher = more antagonism (negative = synergy)
Method in brief: (§2)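 Combination data were used to infer fitness under each single drug. Fitness is the OD595 at entry into stationary phase divided by the robust mean of the plate's no-drug wells, with a cap of 1. The Bliss score is the observed minus the expected product fitness, summarised by quartiles over technical, biological and donor/recipient replicates.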

S. aureus DSM 20231 [6] = test: as above
Method in brief: as §2

S. aureus Newman [7] = test: as above
Method in brief: as §2

S. pneumoniae D39V [8] = test: as above
Method in brief: as §2
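For Bliss interaction score (quartile over a dose matrix) in this document: first quartile when negative (synergy) and third quartile when positive (antagonism).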

Cc1onc(-c2ccccc2)c1C(=O)N[C@@H]1C(=O)N2[C@@H]1SC(C)(C)[C@@H]2C(=O)O [Oxacillin] + CC1=C\[C@@H](O)CC(=O)Cc2nc(co2)C(=O)N2CCC=C2C(=O)O[C@H](C(C)C)[C@H](C)/C=C/C(=O)NC\C=C\1 [Virginiamycin M1]
Conditions	fitness
B. subtilis 168 [1], first compound 0.002 µg/mL, partner 0.0625 µg/mL	0.993
B. subtilis 168 [1], first compound 0.002 µg/mL, partner 0.125 µg/mL	0.954
B. subtilis 168 [1], first compound 0.002 µg/mL, partner 0.25 µg/mL	0.977
B. subtilis 168 [1], first compound 0.004 µg/mL, partner 0.0625 µg/mL	0.98
B. subtilis 168 [1], first compound 0.004 µg/mL, partner 0.125 µg/mL	0.941
B. subtilis 168 [1], first compound 0.004 µg/mL, partner 0.25 µg/mL	0.973
B. subtilis 168 [1], first compound 0.008 µg/mL, partner 0.0625 µg/mL	0.962
B. subtilis 168 [1], first compound 0.008 µg/mL, partner 0.125 µg/mL	0.905
B. subtilis 168 [1], first compound 0.008 µg/mL, partner 0.25 µg/mL	0.962
S. aureus DSM 20231 [2], first compound 0.0156 µg/mL, partner 0.0625 µg/mL	0.803
S. aureus DSM 20231 [2], first compound 0.0156 µg/mL, partner 0.125 µg/mL	0.808
S. aureus DSM 20231 [2], first compound 0.0156 µg/mL, partner 0.25 µg/mL	0.775
S. aureus DSM 20231 [2], first compound 0.0312 µg/mL, partner 0.0625 µg/mL	0.61
S. aureus DSM 20231 [2], first compound 0.0312 µg/mL, partner 0.125 µg/mL	0.686
S. aureus DSM 20231 [2], first compound 0.0312 µg/mL, partner 0.25 µg/mL	0.628
S. aureus DSM 20231 [2], first compound 0.0625 µg/mL, partner 0.0625 µg/mL	0.492
S. aureus DSM 20231 [2], first compound 0.0625 µg/mL, partner 0.125 µg/mL	0.514
S. aureus DSM 20231 [2], first compound 0.0625 µg/mL, partner 0.25 µg/mL	0.545
S. aureus Newman [3], first compound 0.0156 µg/mL, partner 0.0625 µg/mL	0.755
S. aureus Newman [3], first compound 0.0156 µg/mL, partner 0.125 µg/mL	0.761
S. aureus Newman [3], first compound 0.0156 µg/mL, partner 0.25 µg/mL	0.763
S. aureus Newman [3], first compound 0.0312 µg/mL, partner 0.0625 µg/mL	0.71
S. aureus Newman [3], first compound 0.0312 µg/mL, partner 0.125 µg/mL	0.709
S. aureus Newman [3], first compound 0.0312 µg/mL, partner 0.25 µg/mL	0.694
S. aureus Newman [3], first compound 0.0625 µg/mL, partner 0.0625 µg/mL	0.622
S. aureus Newman [3], first compound 0.0625 µg/mL, partner 0.125 µg/mL	0.623
S. aureus Newman [3], first compound 0.0625 µg/mL, partner 0.25 µg/mL	0.643
S. pneumoniae D39V [4], first compound 0.01 µg/mL, partner 0.5 µg/mL	0.986
S. pneumoniae D39V [4], first compound 0.01 µg/mL, partner 1 µg/mL	0.98
S. pneumoniae D39V [4], first compound 0.01 µg/mL, partner 2 µg/mL	0.961
S. pneumoniae D39V [4], first compound 0.02 µg/mL, partner 0.5 µg/mL	0.964
S. pneumoniae D39V [4], first compound 0.02 µg/mL, partner 1 µg/mL	0.965
S. pneumoniae D39V [4], first compound 0.02 µg/mL, partner 2 µg/mL	0.913
S. pneumoniae D39V [4], first compound 0.04 µg/mL, partner 0.5 µg/mL	0.539
S. pneumoniae D39V [4], first compound 0.04 µg/mL, partner 1 µg/mL	0.568

one replicate
Conditions	fitness
B. subtilis 168 [1], first compound 0.075 µg/mL, partner 0.0625 µg/mL	0.461
B. subtilis 168 [1], first compound 0.075 µg/mL, partner 0.125 µg/mL	0.639
B. subtilis 168 [1], first compound 0.075 µg/mL, partner 0.25 µg/mL	0.53
B. subtilis 168 [1], first compound 0.15 µg/mL, partner 0.0625 µg/mL	0.0434
B. subtilis 168 [1], first compound 0.15 µg/mL, partner 0.125 µg/mL	0.0511
B. subtilis 168 [1], first compound 0.15 µg/mL, partner 0.25 µg/mL	0.0511
B. subtilis 168 [1], first compound 0.3 µg/mL, partner 0.0625 µg/mL	0.04
B. subtilis 168 [1], first compound 0.3 µg/mL, partner 0.125 µg/mL	0.0604
B. subtilis 168 [1], first compound 0.3 µg/mL, partner 0.25 µg/mL	0.0635
S. aureus DSM 20231 [2], first compound 0.0156 µg/mL, partner 0.5 µg/mL	0.835
S. aureus DSM 20231 [2], first compound 0.0156 µg/mL, partner 1 µg/mL	0.903
S. aureus DSM 20231 [2], first compound 0.0312 µg/mL, partner 0.5 µg/mL	0.719
S. aureus DSM 20231 [2], first compound 0.0312 µg/mL, partner 1 µg/mL	0.746
S. aureus DSM 20231 [2], first compound 0.0625 µg/mL, partner 0.5 µg/mL	0.517
S. aureus DSM 20231 [2], first compound 0.0625 µg/mL, partner 1 µg/mL	0.64
S. aureus Newman [3], first compound 0.0156 µg/mL, partner 0.5 µg/mL	0.815
S. aureus Newman [3], first compound 0.0156 µg/mL, partner 1 µg/mL	0.882
S. aureus Newman [3], first compound 0.0156 µg/mL, partner 2 µg/mL	0.843
S. aureus Newman [3], first compound 0.0312 µg/mL, partner 0.5 µg/mL	0.752
S. aureus Newman [3], first compound 0.0312 µg/mL, partner 1 µg/mL	0.78
S. aureus Newman [3], first compound 0.0312 µg/mL, partner 2 µg/mL	0.723
S. aureus Newman [3], first compound 0.0625 µg/mL, partner 0.5 µg/mL	0.597
S. aureus Newman [3], first compound 0.0625 µg/mL, partner 1 µg/mL	0.671
S. aureus Newman [3], first compound 0.0625 µg/mL, partner 2 µg/mL	0.676
S. pneumoniae D39V [4], first compound 0.01 µg/mL, partner 0.15 µg/mL	≥ 1
S. pneumoniae D39V [4], first compound 0.01 µg/mL, partner 0.3 µg/mL	≥ 1
S. pneumoniae D39V [4], first compound 0.02 µg/mL, partner 0.15 µg/mL	≥ 1
S. pneumoniae D39V [4], first compound 0.02 µg/mL, partner 0.3 µg/mL	≥ 1
S. pneumoniae D39V [4], first compound 0.04 µg/mL, partner 0.15 µg/mL	0.994
S. pneumoniae D39V [4], first compound 0.04 µg/mL, partner 0.3 µg/mL	0.989

Conditions	Bliss interaction score
B. subtilis 168 [5]	0.0548
S. aureus DSM 20231 [6]	-0.0341
S. aureus Newman [7]	0.0583
S. pneumoniae D39V [8]	0.114

Cc1onc(-c2ccccc2)c1C(=O)N[C@@H]1C(=O)N2[C@@H]1SC(C)(C)[C@@H]2C(=O)O [Oxacillin] + CCN(CC)CCOC(=O)c1ccc(N)cc1 [Procaine]
fitness
Conditions	partner 85.5 µg/mL	partner 171 µg/mL	partner 342 µg/mL
B. subtilis 168 [1], first compound 0.002 µg/mL	0.938	0.932	0.894
B. subtilis 168 [1], first compound 0.004 µg/mL	0.966	0.913	0.911
B. subtilis 168 [1], first compound 0.008 µg/mL	0.963	0.916	0.867
S. aureus DSM 20231 [2], first compound 0.0156 µg/mL	0.782	0.916	0.852
S. aureus DSM 20231 [2], first compound 0.0312 µg/mL	0.64	0.738	0.712
S. aureus DSM 20231 [2], first compound 0.0625 µg/mL	0.443	0.513	0.514
S. aureus Newman [3], first compound 0.0312 µg/mL	0.686	–	–
S. pneumoniae D39V [4], first compound 0.01 µg/mL	≥ 1	≥ 1	0.998
S. pneumoniae D39V [4], first compound 0.02 µg/mL	0.933	0.932	0.925
S. pneumoniae D39V [4], first compound 0.04 µg/mL	–	–	0.497

fitness, B. subtilis 168 [1], one replicate
Conditions	first compound 0.075 µg/mL	first compound 0.15 µg/mL	first compound 0.3 µg/mL
partner 85.5 µg/mL	0.637	0.0445	0.056
partner 171 µg/mL	0.535	0.0452	0.0565
partner 342 µg/mL	0.577	0.041	0.0536

Conditions	Bliss interaction score
B. subtilis 168 [5]	0.0581
S. aureus DSM 20231 [6]	-0.0703
S. aureus Newman [7]	-0.0416
S. pneumoniae D39V [8]	0.0938

— the supplement of paper PMC10627819
